Data as given in patent US8410068B2, “Compounds for the treatment or alleviation of edema, and methods for their use” (Index Pharmaceuticals AB, priority 2007, dated 2013).

Assays:
[1] = tested on: arachidonic acid (AA) induced ear edema; assay: Arachidonic acid (AA) induced ear edema model; assay type: in vivo, mice; conditions: for AUC reduction (%) AA: 10 μg one single s.c. injection 20 minutes before AA, compared to PBS control; for Peak reduction (%) AA: 10 μg subcutaneously 20 minutes before induction of edema
Protocol: A stock solution of AA was prepared by diluting AA in acetone, 4 mg/10 μL, and was stored frozen at −80° C. A final working solution, 1 mg/10 μL, in acetone was prepared. The working solution was used within one hour after preparation.
(§1) Both outer ears of a non-anesthetized mouse were washed with mild soap (Palmolive, Sweden) using a soft tooth brush, the ears were dried with tissue and cleaned with tissue soaked with acetone. After allowing the acetone to evaporate, TPA or AA was applied on both sides, 10 μL, on each side of the ear with care to cover the whole ear. The mouse was held for 20 seconds to allow the solvent to evaporate.
(§2) The ears of non-anesthetized mice were measured at different time points for up to 96 hours after the TPA was administered, or up to 24 hours for the AA model. The first measurements were done before the edema was induced. The thickness was recorded with a spring loaded dial micrometer (Limit, Thickness Gauge, accuracy 0.01 mm, contact area Ø6 mm, Luna AB, Allingsås, Sweden) in triplicates at all time points per ear.
(§3) The average thickness for both ears on a mouse was calculated and compared to the average thickness of the ears at the starting time point. The value obtained at the start of the experiment was set as 100%. The peak values and area under the curve (AUC) values for the treatment groups were calculated and compared to the inflamed control group, treated with PBS (set as 100%), and expressed as a percentage change (Δ% AUC).
(§4) Area under the curve (AUC) with base line set as 100 was calculated using GraphPad Prism version 4.03 for Windows (GraphPad Software, San Diego Calif. USA, www.graphpad.com).
In addition to the experiments done with the control compounds and IDX0001, all other test compounds were investigated in a similar fashion in the TPA and/or AA ear edema models, where the test compounds were given subcutaneously (10 μg) 20 minutes before induction of edema. The results were expressed as reduction of peak value and reduction of area under curve (AUC) in Table 5.

[2] = tested on: tetradecanoylphorbol 13-acetate (TPA) induced ear edema; assay: TPA-induced ear edema model; assay type: in vivo, mice; conditions: for Differences in AUC: Study L dose response; for Reduction of AUC compared to PBS: Study A / FIG. 1, one single injection (i.p. in Study A, s.c. in FIG. 1) 20 min before TPA, day 0; for AUC reduced: Study J; for AUC reduction (%) TPA: 10 μg one single s.c. injection 20 minutes before TPA, compared to PBS control; for Peak reduction (%) TPA: 10 μg subcutaneously 20 minutes before induction of edema
Protocol: A stock solution of TPA was prepared by dissolving TPA in DMSO, 1 mg/mL, and was stored frozen at −80° C. For study B-E, a working solution was prepared with 200 μL of the TPA stock solution added to 800 μL acetone. The working solution was used the same day as it was prepared.
Each cage was identified by a cage card marked with study number, group number, ethical approval number, sex and animal ear numbers. The animals were individually marked on the tail with transverse lines corresponding to the animals' number, using a permanent-ink felt pen. An illustration of the protocols used for the different treatments is outlined in Table 4. The compounds were tested according to the same protocols with necessary modifications.
Intraperitoneal (i.p.) injections were performed by giving 100 μL in the lower right quadrant of the abdomen. Subcutaneous injections were done with 100 μL in the neck region. Intranasal administration was performed by letting the mouse inhale droplets into the nostrils, total volume 40 μL. All administrations were done on non-anesthetized mice.
as §1
Intraperitoneal injections were given in the lower right quadrant of the abdomen with the animal held in a supine position. Subcutaneous (s.c.) injections were given in the neck of the animals. Intranasal administrations were given to mice held in a slightly reclining position. With an adjustable micro-pipette 40 μL of the test substance was given in droplets on the nostrils and the mouse was allowed to aspirate at free will.
as §2, §3, §4
AUC reduction and P-values were calculated against the positive control (TPA or AA+PBS).

[3] = Study B, 100 μg s.c. 4 days before induction of edema
[4] = Study C (repeat of B), 100 μg s.c. 4 days before induction of edema
[5] = Study D, 100 μg s.c. 2 days before induction of edema
[6] = Study E, 100 μg s.c. same day, approx. 20 min before induction
[7] = Study F, equal doses 50 μg s.c. same day as swelling induced
[8] = Study G, therapeutic, 100 μg s.c. 2 hours after induction of edema
[9] = Study H, 100 μg intranasal 4 days before swelling induced
[10] = Study I, 100 μg intranasal day 0, same day as edema induced
[11] = therapeutic, 100 μg intranasal 2 hours after induction

`O=C1CCN(c2ccccc2)N1` [Phenidone] was tested. Which “reduction of AUC” value ([1]; FIG. 4, phenidone given 30 min before AA, IDX0150 given 20 min before AA) did it give?
Its value is −39.1%.

Which “reduction of AUC” value ([2]; Study N, 0.005 μg, one single i.n. (Table 4) day 0) does the source give for “G*G*A*A*C*A*G*T*T*C*G*T*C*C*A*T*G*G*C (as printed in the source, key not given here) [IDX0500]” here?
The value was −15%.

And the “reduction of AUC” value ([2]; Study N, 0.01 μg, one single i.n. (Table 4) day 0)?
The value was −15.3%.

What about the “reduction of AUC” value ([2]; Study N, 0.1 μg, one single i.n. (Table 4) day 0) of the same compound?
The value was −18.2%.

What about the “reduction of AUC” value ([2]; Study N, 1 μg, one single i.n. (Table 4) day 0) of the same compound?
The value was −54.1%.

And the “reduction of AUC” value ([2]; Study O, 10 μg given s.c. on day 0 (Table 4: i.n.))?
Its value is −25.5%.

How did the “Differences in AUC” value ([2]; 0.1 μg, one single i.n. (Table 4) day 0) turn out when “G*G*A*ACAGTTGCTCCAT*G*G*C (as printed in the source, key not given here) [IDX0526, negative control, having the CpG motif substituted with a GC]” was run?
The value was “+1.24%”.

And the “Differences in AUC” value ([2]; 100 μg, one single i.n. (Table 4) day 0)?
The value was “+6.18%”.

And the anti-swelling activity ([2]; Study L, 0.1-100 μg)?
Its anti-swelling activity is “no anti-swelling activity”.

How did the “Reduction of AUC compared to PBS” value ([2]; 100 μg) turn out when “G*G*G*GAACAGTTCGTCCAT*G*G*C (phosphorothioate linkages, as printed in the source, key not given here) [IDX0955, oligonucleotide used as control; * = phosphorothioate modification]” was run?
The value was −4.8%.

And the “reduction of AUC” value [2, 3]?
The value was −22.7%.

What about the “reduction of AUC” value [2, 4] of the same compound?
Its value is −24.3%.

And the “reduction of AUC” value [2, 5]?
Its value is −17.8%.

And the “reduction of AUC” value [2, 6]?
The value was −17.7%.

And the “reduction of AUC” value [2, 7]?
Its value is −18.3%.

And the “reduction of AUC” value [2, 8]?
Its value is −40.7%.

And the “reduction of AUC” value [2, 9]?
Its value is −17.4%.

What about the “reduction of AUC” value [2, 10] of the same compound?
The value was −28.8%.

And the AUC reduced [2, 11]?
The AUC reduced was −17.2%.

For “G*G*G*GCGTCTGCC*G*G*G (GGGGCGTCTGCCGGG; DNA, linkages s3 o8 s3 (s phosphorothioate, o phosphodiester), methylation of C not given here) [IDX9051, oligonucleotide; * = phosphorothioate modification]”, which “AUC reduction (%) TPA” value [2] is on record?
The value was −54.0%.

And the “Peak reduction (%) TPA” value [2]?
The value was −29.5%.

And the “AUC reduction (%) AA” value [1]?
The value was −67.5%.

And the “Peak reduction (%) AA” value [1]?
Its value is −17.7%.

Which results are given for “T*C*C*A*T*G*A*C*G*T*T*C*C*T*G*A*C*G*T*T [IDX0920]”?
Reduction of AUC compared to PBS ([2]; 50 μg): −22.1%; reduction of AUC ([2]; Study B, 50 μg s.c. 4 days before induction of edema): −19.3%; reduction of AUC ([2]; Study C (repeat of B), 50 μg s.c. 4 days before induction of edema): −3%; reduction of AUC ([2]; Study D, 50 μg s.c. 2 days before induction of edema): −19.1%; reduction of AUC ([2]; Study E, 50 μg s.c. same day, approx. 20 min before induction): −19.4%; reduction of AUC [2, 7]: −17%; reduction of AUC ([2]; Study G, therapeutic, 50 μg s.c. 2 hours after induction of edema): −43.8%; reduction of AUC ([2]; Study H, 50 μg intranasal 4 days before swelling induced): −33.8%; reduction of AUC ([2]; Study I, 50 μg intranasal day 0, same day as edema induced): −27.3%; AUC reduced ([2]; therapeutic, 50 μg intranasal 2 hours after induction): −28.7%

“T*C*C*ATGGTCAGGGTCCCGG*G*G*G (TCCATGGTCAGGGTCCCGGGGG; DNA, linkages s3 o15 s3 (s phosphorothioate, o phosphodiester), methylation of C not given here) [IDX9064, oligonucleotide; * = phosphorothioate modification]” was tested. Which “AUC reduction (%) TPA” value [2] did it give?
Its value is −59.7%.

What about the “Peak reduction (%) TPA” value [2] of the same compound?
Its value is −41.7%.

“T*C*C*CAAGATCGTCC*A*G*G (phosphorothioate linkages, as printed in the source, key not given here) [IDX9076, oligonucleotide; * = phosphorothioate modification]” was tested. Which “AUC reduction (%) TPA” value [2] did it give?
The value was −5.1%.

And the “Peak reduction (%) TPA” value [2]?
The value was −2.6%.

What about the “AUC reduction (%) AA” value [1] of the same compound?
Its value is −45.7%.

And the “Peak reduction (%) AA” value [1]?
The value was −20.1%.

How did the “AUC reduction (%) TPA” value [2] turn out when “T*C*C*GATCGTCC*A*G*G (TCCGATCGTCCAGG; DNA, linkages s3 o7 s3 (s phosphorothioate, o phosphodiester), methylation of C not given here) [IDX9078]” was run?
Its value is −41.3%.

And the “Peak reduction (%) TPA” value [2]?
Its value is −26.1%.

And the “AUC reduction (%) AA” value [1]?
The value was −79.4%.

What about the “Peak reduction (%) AA” value [1] of the same compound?
The value was −16.4%.

Which “Reduction of AUC compared to PBS” value ([2]; 100 μg) does the source give for “T*C*C*GCGTTCGGCCTCCTGGCG*C*G*G (phosphorothioate linkages, as printed in the source, key not given here) [IDX0001, oligonucleotide; * = phosphorothioate modification]” here?
Its value is −15.7%.

And the “reduction of AUC” value [2, 3]?
The value was −16.3%.

What about the “reduction of AUC” value [2, 4] of the same compound?
Its value is −17.9%.

What about the “reduction of AUC” value [2, 5] of the same compound?
The value was −12.4%.

What about the “reduction of AUC” value [2, 6] of the same compound?
Its value is −16.7%.

What about the “reduction of AUC” value [2, 7] of the same compound?
Its value is −13.2%.

And the “reduction of AUC” value [2, 8]?
The value was −17.9%.

What about the “reduction of AUC” value [2, 9] of the same compound?
Its value is −25.7%.

What about the “reduction of AUC” value [2, 10] of the same compound?
Its value is −6.4%.

What about the AUC reduced [2, 11] of the same compound?
The AUC reduced was −25.2%.

“T*C*G*TCTGCTTAGTTCGTTA*G*T*T (TCGTCTGCTTAGTTCGTTAGTT; DNA, linkages s3 o15 s3 (s phosphorothioate, o phosphodiester), methylation of C not given here) [IDX9087]” was tested. Which “AUC reduction (%) TPA” value [2] did it give?
The value was −40.2%.

And the “Peak reduction (%) TPA” value [2]?
Its value is “+0.9%”.

“T*G*C*CATTCGTCGTTCTCGTC*G*T*T (phosphorothioate linkages, as printed in the source, key not given here) [IDX9024, oligonucleotide; * = phosphorothioate modification]” was tested. Which “AUC reduction (%) TPA” value [2] did it give?
Its value is −47.3%.

And the “Peak reduction (%) TPA” value [2]?
The value was −30.9%.

And the “AUC reduction (%) AA” value [1]?
The value was −58.5%.

What about the “Peak reduction (%) AA” value [1] of the same compound?
The value was −14.4%.
